Assay results as given in publication PMC4402028 (Journal of Clinical Pharmacology, 2015).
“And” between values parts separate entries of the source, which are not always exact repeats. Equal values may be shown once. Read-outs that look alike come from different tables or passages of the source.

Columns and labels:
[1] = Allometric PK scaling of CLTOT to human
OAT1 [2] = conditions: in vitro; ref data on file at Furiex; cited from earlier work
BCRP [3] = conditions: in vitro; ref data on file at Furiex; cited from earlier work
Caco2 cell-line = conditions: ref data on file at Furiex; cited from earlier work
MRP2 [4] = conditions: in vitro; ref data on file at Furiex; cited from earlier work
OCT2 [5] = conditions: in vitro; ref data on file at Furiex; cited from earlier work
P-gp = conditions: in vitro; ref data on file at Furiex; cited from earlier work
MRP2 [6] = conditions: in vitro; ref data on file at Furiex; cited from earlier work; remark: listed apart in the source
Safety and tolerability = type: in vivo, human
[7] = in vitro or in vivo, except slow formation of a glucuronide found in human urine after 1,000 mg oral dose; ref data on file at Furiex; cited from earlier work
[8] = Dog; IV 2 mg/kg; ref Furiex Studies DD7393, FK10138, FK10141, and FK10142; cited from earlier work
OCT1 [9] = conditions: in vitro; ref data on file at Furiex; cited from earlier work
OAT1 [10] = conditions: in vitro; ref data on file at Furiex; cited from earlier work; remark: listed apart in the source
OATP1B3 [11] = conditions: in vitro; ref data on file at Furiex; cited from earlier work
[12] = humans; single 300 mg radiolabeled dose; ref data on file at Furiex; cited from earlier work
[13] = Rhesus; IV 3.2 mg/kg; ref Furiex Studies DD7393, FK10138, FK10141, and FK10142; cited from earlier work
[14] = Semiphysiological integrated PK/ADME model; design: species or system human; conditions: for clearance: oral
CYP-450s = conditions: in vitro; ref data on file at Furiex; cited from earlier work
[15] = plasma protein binding; model input, source not stated; cited from earlier work
OAT3 = conditions: in vitro; ref data on file at Furiex; cited from earlier work
OATP1B3 [16] = conditions: in vitro; ref data on file at Furiex; cited from earlier work; remark: listed apart in the source
[17] = Cynos; IV 10 mg/kg; ref Furiex Studies DD7393, FK10138, FK10141, and FK10142; cited from earlier work
OCT2 [18] = conditions: in vitro; ref data on file at Furiex; cited from earlier work; remark: listed apart in the source
OCT1 [19] = conditions: in vitro; ref data on file at Furiex; cited from earlier work; remark: listed apart in the source
[20] = Rat; IV 10 mg/kg; ref Furiex Studies DD7393, FK10138, FK10141, and FK10142; cited from earlier work
[21] = ref data on file at Furiex; cited from earlier work
BCRP [22] = conditions: in vitro; ref data on file at Furiex; cited from earlier work; remark: listed apart in the source
BSEP = conditions: in vitro; ref data on file at Furiex; cited from earlier work
[23] = type: in vivo, human; conditions: for AUC(0–inf), Ratio (%) of Geometric LS Means: all profiles with estimable elimination rates; for CL renal: plasma and urine, CLr; for Vd/F: Vz/F
[24] = human, reference case without inhibitor, estimated
[25] = in the presence of cyclosporine
[26] = both, human, plasma, oral, eluxadoline 100 mg plus cyclosporine 600 mg, arithmetic mean (CV), n = 19
[27] = both, human, plasma, oral, eluxadoline 100 mg plus probenecid 500 mg, arithmetic mean (CV), n = 20
[28] = coadministered with probenecid vs eluxadoline alone

## COc1ccc(CN(C(=O)[C@@H](N)Cc2c(C)cc(C(N)=O)cc2C)[C@@H](C)c2ncc(-c3ccccc3)[nH]2)cc1C(=O)O [eluxadoline]
[1]
  clearance: 12.6 mL/min/kg and 949 mL/min
OAT1 [2]
  transport by OAT1: not to be transported
BCRP [3]
  inhibition of BCRP-mediated transport of probe substrates: did not inhibit
Caco2 cell-line
  Caco2 cell-line permeability: poor
MRP2 [4]
  MRP2-dependent vesicular accumulation: substrate of MRP2
OCT2 [5]
  transport by OCT2: not to be transported
P-gp
  transport by P-gp: not to be transported
MRP2 [6]
  inhibition of MRP2-mediated transport of probe substrates: did not inhibit
Safety and tolerability; after eluxadoline alone
  nausea: not reported
Safety and tolerability; after eluxadoline alone (1 subject)
  subjects reporting gastrointestinal AEs: 3%
Safety and tolerability; after eluxadoline alone (2 subjects)
  subjects reporting AEs: 7%
Safety and tolerability; after eluxadoline combined with cyclosporine (3 subjects)
  subjects reporting nausea: 10.0%
Safety and tolerability; after eluxadoline combined with probenecid (2 subjects)
  subjects reporting gastrointestinal AEs: 7%
Safety and tolerability; after eluxadoline in combination with cyclosporine (4 subjects)
  subjects reporting gastrointestinal AEs: 13%
Safety and tolerability; after eluxadoline in combination with cyclosporine (6 subjects)
  subjects reporting AEs: 20%
Safety and tolerability; after eluxadoline with probenecid (1 subject)
  subjects reporting nausea: 3%
[7]
  hepatic drug metabolism: absence of hepatic drug metabolism
[8]
  CLtot: 19.92 mL/min/kg
  t½: 0.75 h
OCT1 [9]
  transport by OCT1: not to be transported
OAT1 [10]
  inhibition of OAT1-mediated transport of probe substrates: did not inhibit
OATP1B3 [11]
  inhibition of OATP1B3-mediated transport of probe substrates: did not inhibit
[12]
  circulating metabolites: no circulating metabolites were detected
[13]
  CLtot: 28.5 mL/min/kg
  t½: 0.65 h
[14]; eluxadoline alone
  PK-ADME-model-predicted AUC(0–inf): 17.8 ng·h/mL
[14]; human
  renal excretion as share of overall elimination: 12%
[14]; human, plasma, 200 mg, biliary clearance (CLbil), without inhibitor, estimated
  clearance: 832 mL/min
[14]; human, plasma, 200 mg, net tubular secretion clearance CLTS, without inhibitor, estimated
  clearance: 459 mL/min
[14]; human, plasma, po, 200 mg
  bioavailability: 1.02%
[14]; [24]
  FGI (extent of GI absorption/GI permeability): 2.3%
  hepatic extraction ratio (ERhep): 55.8%
[14]; human, without inhibitor, estimated
  intrinsic biliary CLint: 9,370 mL/min
[14]; [25]
  CLbil: 296 mL/min
  Foral: 1.82%
  reduction of CLTS: 24%
  reduction of biliary CLint: 71%
[14]; in the presence of probenecid
  CLbil: 750 mL/min
  Foral: 1.15%
  reduction of CLTS: 52%
  reduction of biliary CLint: 21%
[14]; with cyclosporine
  PK-ADME-model-predicted AUC(0–inf): 78.3 ng·h/mL
  model-predicted CLren: 92 mL/min
[14]; with probenecid
  PK-ADME-model-predicted AUC(0–inf): 23.6 ng·h/mL
  model-predicted CLren: 62 mL/min
CYP-450s
  inhibition or induction of CYP-450s: no inhibition or induction
[15]
  fu (unbound fraction of drug in plasma): 19%
OAT3
  inhibition of OAT3-mediated transport of probe substrates: did not inhibit
OATP1B3 [16]
  transport by OATP1B3: not to be transported
[17]
  CLtot: 18.54 mL/min/kg
  t½: 3.73 h
OCT2 [18]
  inhibition of OCT2-mediated transport of probe substrates: did not inhibit
OCT1 [19]
  inhibition of OCT1-mediated transport of probe substrates: did not inhibit
[20]
  CLtot: 44.4 mL/min/kg
  t½: 0.8 h
[21]
  GI solubility: high
BCRP [22]
  transport by BCRP: not to be transported
BSEP
  inhibition of BSEP-mediated transport of probe substrates: did not inhibit
[23]; B/A: with cyclosporine 600 mg vs eluxadoline alone
  Cmax, Ratio (%) of Geometric LS Means: 6.18%
[23]; B/A: with cyclosporine vs alone
  AUC(0–inf), Ratio (%) of Geometric LS Means: 4.25%
[23]; C/A: with probenecid 500 mg vs eluxadoline alone
  Cmax, Ratio (%) of Geometric LS Means: 1.31%
[23]; C/A: with probenecid vs alone
  AUC(0–inf), Ratio (%) of Geometric LS Means: 1.48%
[23]; both, human, oral, eluxadoline 100 mg plus cyclosporine 600 mg, arithmetic mean (CV)
  CL renal: 96.7 mL/min
[23]; both, human, oral, eluxadoline 100 mg plus probenecid 500 mg, arithmetic mean (CV)
  CL renal: 61.7 mL/min
[23]; both, human, plasma, oral, 100 mg
  Tmax: 2.1 h
[23]; both, human, plasma, oral, 100 mg, Geometric LS Means, Treatment A, all profiles with estimable elimination rates (N 20)
  AUC(0-inf): 14.7 ng·h/mL
[23]; both, human, plasma, oral, 100 mg, Geometric LS Means, Treatment A, only subjects with estimable elimination rates for all 3 treatments (N 7)
  AUC(0-inf): 15.7 ng·h/mL
[23]; both, human, plasma, oral, Geometric LS Means, Treatment B (+ cyclosporine 600 mg), all profiles with estimable elimination rates (N 19)
  AUC(0-inf): 62.6 ng·h/mL
[23]; both, human, plasma, oral, Geometric LS Means, Treatment B (+ cyclosporine 600 mg), only subjects with estimable elimination rates for all 3 treatments (N 7)
  AUC(0-inf): 79.9 ng·h/mL
[23]; both, human, plasma, oral, Geometric LS Means, Treatment C (+ probenecid 500 mg), all profiles with estimable elimination rates (N 20)
  AUC(0-inf): 21.8 ng·h/mL
[23]; both, human, plasma, oral, Geometric LS Means, Treatment C (+ probenecid 500 mg), only subjects with estimable elimination rates for all 3 treatments (N 7)
  AUC(0-inf): 20.4 ng·h/mL
[23]; [26]
  AUC(0-inf): 75.3 ng·h/mL
  Vd/F: 20700 L
[23]; [27]
  AUC(0-inf): 23 ng·h/mL
  Vd/F: 37100 L
[23]; both, human, plasma, oral, eluxadoline 100 mg plus cyclosporine 600 mg, arithmetic mean (CV), N = 30
  Cmax: 20.9 ng/mL
[23]; both, human, plasma, oral, eluxadoline 100 mg plus probenecid 500 mg, arithmetic mean (CV), N = 29
  Cmax: 3.6 ng/mL
[23]; both, human, plasma, oral, t1/2, eluxadoline 100 mg plus cyclosporine 600 mg, arithmetic mean (CV), n = 19
  half-life: 7.4 h
[23]; both, human, plasma, oral, t1/2, eluxadoline 100 mg plus probenecid 500 mg, arithmetic mean (CV), n = 20
  half-life: 5.1 h
[23]; by cyclosporine
  effect on renal clearance (CLren) of eluxadoline: little effect
[23]; by probenecid
  reduction of renal clearance (CLren): ~50%
[23]; coadministered with cyclosporine vs alone, subjects with estimable elimination rates for all 3 treatments
  increase in AUC(0–inf), geometric mean ratio: 5.1 fold
[23]; coadministered with cyclosporine vs eluxadoline alone
  increase in peak exposure (Cmax): 6.2 fold
[23]; [28]
  increase in peak exposure (Cmax): 1.3 fold and 1.31 fold
  increase in systemic/total exposure [AUC(0–inf)]: 1.30 fold and 1.3 fold
[23]; eluxadoline 100 mg alone
  CLren, mean (CV%): 116 (20%) mL/min and 116 mL/min
[23]; eluxadoline 100 mg alone, arithmetic mean (CV)
  %Fe(0–72), cumulative urinary excretion over 72 hours as fraction of the dose: 0.12%
[23]; eluxadoline 100 mg alone, arithmetic mean (CV), listed as Eluxadoline
  %Fe(0–72), cumulative urinary excretion over 72 hours as fraction of the dose: 0.12 (52) %
[23]; eluxadoline 100 mg alone, arithmetic mean (CV), n = 20
  CL/F: 7550 (54) L/h
[23]; eluxadoline 100 mg plus cyclosporine 600 mg, arithmetic mean (CV)
  %Fe(0–72), cumulative urinary excretion over 72 hours as fraction of the dose: 0.46%
[23]; eluxadoline 100 mg plus cyclosporine 600 mg, arithmetic mean (CV), n = 19
  CL/F: 1943 (69) L/h
[23]; eluxadoline 100 mg plus probenecid 500 mg, arithmetic mean (CV)
  %Fe(0–72), cumulative urinary excretion over 72 hours as fraction of the dose: 0.08%
[23]; eluxadoline 100 mg plus probenecid 500 mg, arithmetic mean (CV), listed as Eluxadoline
  %Fe(0–72), cumulative urinary excretion over 72 hours as fraction of the dose: 0.08 (39) %
[23]; eluxadoline 100 mg plus probenecid 500 mg, arithmetic mean (CV), n = 20
  CL/F: 5645 (53) L/h
[23]; eluxadoline 100 mg plus probenecid 500 mg, median (minimum, maximum)
  Tmax: 2.5 (0.25, 6.0) hours
[23]; in the presence of cyclosporine 600 mg
  CLren, mean (CV%): 97 (19%) mL/min and 97 mL/min
[23]; in the presence of probenecid 500 mg
  CLren, mean (CV%): 62 (25%) mL/min and 62 mL/min
[23]; with or without cyclosporine and probenecid
  fraction of the eluxadoline dose excreted in urine unchanged (%Fe): less than 1%
